The values below come from US11000535B2, “Anticancer composition and use thereof” (KAOHSIUNG MEDICAL UNIVERSITY, priority 2015, dated 2021).

Like-named read-outs stand apart in the source and are kept apart here. Residues, ends and D or L forms follow the SMILES beside them. *: point of attachment. Cbz = O=C(OCc1ccccc1)*; CH2F = FC*

Experiment [1] has as its system human glycine N-methyltransferase promoter. Kind of experiment: GNMT promoter-driven luciferase reporter assay in H7GPL cells. The following applies: for fold induction at 10 µM: Homo sapiens, H7GPL, read-out: Fold change (10 uM). Format: cell-based. How it is done:
Please refer to FIG. 1, which illustrates the configuration of pLV-GNMTpLuc plasmid. HEK293T cells were cotransfected with a packaging plasmid-pCMV-ΔR8.91, a VSV-G envelope expressing plasmid-pMD.G and pLV-GNMTpLuc using TurboFect™ Reagent (Fermentas, Hanover, Md.). One resultant colony was picked, amplified and denominated as H7GPL (HuH-7-GNMT promoter-Luciferase). The relative luciferase activity (RLA) was calculated as “activity of luciferase/intensity of alamarBlue fluorescence”. The fold changes in GNMT promoter induction was calculated as “RLA of drug/RLA of solvent control”. Compounds with the ability to activate human glycine N-methyltransferase promoter in H7GPL could serve as a citeria for screening drugs.
Please refer to FIG. 2, which illustrates the luciferase activity in a screening platform. Previously, 26 FDA approved drugs were identified that can reverse the gene expression signature of HCC. We obtained 26 drugs. H7GPL cells were seeded in 96-well plates for 18 hours and then were treated with these 26 drugs and solvent control for an extra 24 hours.
In the initial screening, when (individual luciferase activity−average luciferase activity of all hits)/standardized Z scores of all samples is greater than 1.5, it means the compound has the capability of enhancing the GNMT reporter activity.
Huh7 cells were infected with this virus and selected with puromycin-containing medium. One resultant colony was picked, amplified and denominated as H7GPL (Huh7 GNMT promoter-luciferase). The cell lysate of H7GPL was used for luciferase activity measurement using the Luciferase Assay System (Promega).
For primary screening, H7GPL cells seeded in 96-well plates were treated for 24 h with individual drugs at a concentration of 2 mg/mL for crude extracts and 0.2 mg/mL for pure compounds and then were lysed for the luciferase activity assay using the Luciferase Assay System (Promega, Madison, Wis., USA).
Reporter activity for each well was transformed to the Z score by using data from all assay plates.
Then, hits of primary screening were sorted by Z score ≥1.5 and used for secondary screening.
And then placed in the above-described culture plate H7GPL cell replication, and after the disposal of seized goods in those 20 hours, the company added AbD serotec Reagent (Oxford, UK), further cultured for 4 hours.
The cytotoxicity was measured according to the manufacturer's recommendation for assessing the reporter gene.
Drugs that induced GNMT promoter activity ≥1.5-fold were considered as hits of the secondary screen with the capability of enhancing the activity of GNMT.

A further experiment concerns c-Myc protein. The experiment can be described thus: Protein degradation inhibitors on PGG-induced c-Myc degradation. Format: cell-based, human. The following applies: co-treatment with PGG, Huh7 cells, FIG. 45.
[2] abbreviates: GNMT promoter induction, RLA of drug/RLA of solvent control, 10 uM, 24 hours.

Turning to `CN1CCN(CCCN2c3ccccc3Sc3ccc(Cl)cc32)CC1` [Prochlorperazine], in experiment [1] (setting [2]), the fold induction at 10 µM worked out at 0.7.

On to `CC(/C=C/C(=O)NO)=C\[C@@H](C)C(=O)c1ccc(N(C)C)cc1` [trichostatin A], for which, in experiment [1] (GNMT promoter induction, 0.2 uM, 24 hours), the “Fold change (0.2 uM)” value was found to be 3.4 with Fold. In addition, the “GNMT promoter activity (in words)” value in experiment [1] (H7GPL luciferase) is “remarkably induced GNMT promoter activity”.

On to `CC(C)COCC(CN(Cc1ccccc1)c1ccccc1)N1CCCC1` (centres unmarked) [Bepridil], for which the fold induction at 10 µM in experiment [1] (setting [2]) was 0.7.

As to `Clc1ccc(CSC(Cn2ccnc2)c2ccc(Cl)cc2Cl)cc1` (centres unmarked) [Sulconazole], the fold induction at 10 µM in experiment [1] (setting [2]) came to 0.5.

With `Cc1cc2cc3c(C)cc(=O)oc3c(C)c2o1` [Trioxysalen], the fold induction at 10 µM in experiment [1] (24 h) came to 1.2.

Consider `O=C(CCCCCCC(=O)Nc1ccccc1)NO` [suberoylanilide hydroxamic acid], for which the “GNMT promoter activity (in words)” value in experiment [1] (H7GPL luciferase) is on record as “remarkably induced GNMT promoter activity”; in experiment [1] (H7GPL luciferase, listed as SAHA), “potent GNMT inducer”. For the same compound, the “dose dependence of GNMT promoter activity” value in experiment [1] (H7GPL luciferase) was “dose-dependently”. Moreover, the fold induction at 10 µM in experiment [1] (24 h) came to 18.6.

`CC[C@@]1(O)C(=O)OCc2c1cc1n(c2=O)Cc2cc3ccccc3nc2-1` [Camptothecin]: the fold induction at 10 µM in experiment [1] (setting [2]) was 0.4.

Regarding `CCCC[C@@H](C=O)NC(=O)[C@H](CC(C)C)NC(=O)OCc1ccccc1` [calpeptin, N-Benzyloxy-carbonyl-L-leucyl-L-norleucinal], the “prevention of PGG-induced c-Myc degradation / inhibition of c-Myc protein expression” value in the experiment on c-Myc protein was “can not prevent”.

As to `CC(C)C[C@@H](C=O)NC(=O)[C@H](CC(C)C)NC(=O)[C@H](CC(C)C)NC(=O)OCc1ccccc1` [MG132, Z-LEU-LEU-LEU-CHO] (Cbz-Leu-Leu-Leu-aldehyde), in the experiment with c-Myc protein, the “prevention of PGG-induced c-Myc degradation / inhibition of c-Myc protein expression” value is recorded as “can not prevent”.

Consider `CC(COc1ccccc1)N(CCCl)Cc1ccccc1` (centres unmarked) [Phenoxybenzamine], for which the fold induction at 10 µM in experiment [1] (24 h) turned out to be 0.7.

Consider `Clc1ccc(C(OCCN2CCCCC2)c2ccccc2)cc1` (centres unmarked) [Cloperastine], for which the fold induction at 10 µM in experiment [1] (24 h) came to 1.

Turning to `CCN(CC)CCCC(C)Nc1ccnc2cc(Cl)ccc12` (centres unmarked) [chloroquine diphosphate], the “prevention of PGG-induced c-Myc degradation / inhibition of c-Myc protein expression” value in the experiment on c-Myc protein was “can not prevent”.

Consider `Oc1c(I)cc(Cl)c2cccnc12` [clioquinol(quinoinol), clioquinol], for which the “GNMT promoter activity (in words)” value in experiment [1] (H7GPL luciferase) is “remarkably induced GNMT promoter activity”. Further, the fold induction at 10 µM in experiment [1] (setting [2]) stood at 3.8.

For `O=C(O)c1cc(O)c(O)c(O)c1` [gallic acid], the “GNMT promoter activity (in words)” value in experiment [1] (H7GPL luciferase) is on record as “none of which can either affect the activity of GNMT promoter”.

For the compound `CSc1ccc2c(c1)N(CCC1CCCCN1C)c1ccccc1S2` (centres unmarked) [Thioridazine], the fold induction at 10 µM in experiment [1] (setting [2]) turned out to be 0.1.

Consider `Cc1cc(/C=C/c2ccc3cc(N(C)C)ccc3[n+]2C)c(C)n1-c1ccccc1` [Pyrvinium], for which, in experiment [1] (setting [2]), the fold induction at 10 µM came to 0.5.

On to `O=c1cc(-c2ccc(O)c(O)c2)oc2cc(O)cc(O)c12` [Luteolin], for which the “GNMT promoter activity (in words)” value in experiment [1] (H7GPL luciferase) was “remarkably induced GNMT promoter activity”. In addition, in experiment [1] (setting [2]), the fold induction at 10 µM amounted to 1.9.

With `O=C1Nc2ccc3ncsc3c2/C1=C/Nc1ccc(S(=O)(=O)Nc2ccccn2)cc1` [GW-8510], in experiment [1] (setting [2]), the “Fold change (10 uM)” value was found to be 0.4.

`C[n+]1cc2c3c(ccc2c2ccc4cc5c(cc4c21)OCO5)OCO3` [Sanguinarine]: the fold induction at 10 µM in experiment [1] (24 h) stood at 0.1.

Consider `C=CCNC1=C2C[C@@H](C)C[C@H](OC)[C@H](O)[C@@H](C)/C=C(\C)[C@H](OC(N)=O)[C@@H](OC)/C=C\C=C(/C)C(=O)NC(=CC1=O)C2=O` [Tanespimycin], for which, in experiment [1] (setting [2]), the fold induction at 10 µM is 0.5.

On to `COc1ccccc1N1CCN(CCCCNC(=O)c2ccc3ccccc3c2)CC1.Cl.Cl` [DO 897/99], for which the “Fold change (10 uM)” value in experiment [1] (setting [2]) came out at 0.9.

Consider `O=C(O)CN(CCN(CC(=O)O)CC(=O)O)CC(=O)O` [EDTA, ethylenediamine-tetraacetic acid], for which, in the experiment with c-Myc protein, the “prevention of PGG-induced c-Myc degradation / inhibition of c-Myc protein expression” value was “can not prevent”.

Regarding `OCCN(CCO)c1nc(N2CCCCC2)c2nc(N(CCO)CCO)nc(N3CCCCC3)c2n1` [Dipyridamole], in experiment [1] (setting [2]), the fold induction at 10 µM came out at 0.9.

With `CN1CCN(CCCN2c3ccccc3Sc3ccc(C(F)(F)F)cc32)CC1` [Trifluoperazine], in experiment [1] (setting [2]), the fold induction at 10 µM amounted to 0.1.

Turning to Tyloxapol, the “Fold change (10 uM)” value in experiment [1] (setting [2]) is reported as 0.6.

As for `OC(c1cc(C(F)(F)F)nc2c(C(F)(F)F)cccc12)C1CCCCN1` (centres unmarked) [Mefloquine], in experiment [1] (setting [2]), the fold induction at 10 µM is 0.3.

With `COC(=O)C[C@H](NC(=O)[C@H](C)NC(=O)[C@@H](NC(=O)OCc1ccccc1)C(C)C)C(=O)CF` [Z-VAD-FMK, N-Benzyloxycarbonyl-Val-Ala-Asp (Ome)fluoromethyl ketone] (Cbz-Val-Ala-Asp(OMe)-CH2F), the “prevention of PGG-induced c-Myc degradation / inhibition of c-Myc protein expression” value in the experiment with c-Myc protein was “can prevent”.

For the compound `CC1=C(CO)C(=O)O[C@@H]([C@@H](C)[C@H]2CC[C@H]3[C@@H]4C[C@H]5O[C@]56[C@@H](O)C=CC(=O)[C@]6(C)[C@H]4CC[C@]23C)C1` [withaferin A], the “Fold change (10 uM)” value in experiment [1] (setting [2]) turned out to be 0.

As for `O=c1cc(-c2ccc(O)cc2)oc2cc(O)cc(O)c12` [Apigenin], the “GNMT promoter activity (in words)” value in experiment [1] (H7GPL luciferase) is “remarkably induced GNMT promoter activity”. Besides, the fold induction at 10 µM in experiment [1] (setting [2]) is 1.8.

On to `Cc1cc(C2CCCCC2)n(O)c(=O)c1` [Ciclopirox], for which the “GNMT promoter activity (in words)” value in experiment [1] (H7GPL luciferase) was “remarkably induced GNMT promoter activity”. In experiment [1] (setting [2]), the fold induction at 10 µM turned out to be 8.2.

As to `Cl.N` [NH4Cl], the “prevention of PGG-induced c-Myc degradation / inhibition of c-Myc protein expression” value with c-Myc protein is reported as “can not prevent”.

As for `COC(=O)Nc1nc2ccc(C(=O)c3ccccc3)cc2[nH]1` [Mebendazole], in experiment [1] (setting [2]), the fold induction at 10 µM worked out at 1.

Regarding `CN(C)CCCN1c2ccccc2Sc2ccc(Cl)cc21` [Chlorpromazine], the fold induction at 10 µM in experiment [1] (setting [2]) was found to be 0.7.
